Consider 7 molecules from PMC7018653 (mBio, 2020).

The nature of data set [1]: in vitro. The settings on record: Klebsiella pneumoniae, not told.
For data set [2] the following is noted: ref supplement refs 1-13 as given per antibiotic; cited from earlier work.
The nature of data set [3]: in vitro. The settings on record: Klebsiella pneumoniae, not told. The source holds these as a separate data set.
The test system of data set [4] is K. pneumoniae isolate (KP3800). The data set can be described thus: agar MIC according to CLSI guidelines. It is filed as cell-based, Klebsiella pneumoniae.
The test system of data set [5] is E. cloacae isolate (EC3800). The data set can be described thus: agar MIC according to CLSI guidelines. Format: cell-based, Enterobacter cloacae.
The conditions of data set [6]: critically ill patients; ref supplement refs 1-13 as given per antibiotic; cited from earlier work.
The next data set has as its system E. cloacae complex. The settings on record: cited from earlier work.
The conditions of data set [7]: basic group carrying the positive charge; no reference given; cited from earlier work.
Data set [8] deals with polymyxin-resistant K. pneumoniae isolate KP3800. The settings on record: for OM permeability coefficient, fold smaller in KP3800 compared to EC3800: KP3800 vs EC3800.
A short description of data set [9]: in vitro. The settings on record: Enterobacter cloacae, not told, pH 7, Avg OM permeability coefficient (nm/s) ± SD.
Data set [10] has as its system polymyxin-susceptible E. cloacae isolate EC3800. The settings on record: for OM permeability of imipenem, fold faster than meropenem: E. cloacae EC3800.
For a further data set, the system named is P. aeruginosa. The settings on record: not told; cited from earlier work.
Where [11] appears, read: pH 7, Avg OM permeability coefficient (nm/s) ± SD, Cassette K. pneumoniae, efflux: with 25 mg/liter PAβN, two biological replicates.
Setting [12] is: pH 7, Avg OM permeability coefficient (nm/s) ± SD, Cassette K. pneumoniae, three biological replicates.
Setting [13] is: pH 7, Avg OM permeability coefficient (nm/s) ± SD, Discrete K. pneumoniae, three biological replicates.
Where [14] appears, read: Cassette E. cloacae, efflux: with 25 mg/liter PAβN, two biological replicates.
[15] abbreviates: Cassette E. cloacae, three biological replicates.
The mark [16] stands for this setting: Discrete E. cloacae, three biological replicates.

Converted amounts (≈) assume the structure as drawn. Where two headings read alike, the source gives them in different places. Residues, ends and D or L forms follow the SMILES beside them. *: point of attachment. βNA = c1ccc2cc(N*)ccc2c1 A value given as a limit tells only on which side of the number the result lay.

The term Papp denotes a coefficient for how fast a substance crosses the barrier. A high value points to ready permeation. Turning to `C[C@H]1[C@H](NC(=O)/C(=N\OC(C)(C)C(=O)O)c2csc(N)n2)C(=O)N1S(=O)(=O)O` [Aztreonam, aztreonam], the Papp is less than 3 nm/s in “in vitro [1]” (setting [11]), less than 3 nm/s in “in vitro [1]” (setting [12]), 8.64 ± 8.46 nm/s in the data set “in vitro [1]” (setting [13]) and 7.4 nm/s in “in vitro [3]”. The “Fraction bound in plasma (%)” value in data set [2] is recorded as 51.5%.

A word on the MIC: it is the least concentration at which growth counts as inhibited. A lower MIC goes with a more susceptible organism. In the case of `CO/N=C(\C(=O)N[C@@H]1C(=O)N2C(C(=O)[O-])=C(C[N+]3(C)CCCC3)CS[C@H]12)c1csc(N)n1` [Cefepime, cefepime], the results for the Papp in “in vitro [1]” (setting [11]), in the data set “in vitro [1]” (setting [12]) and in “in vitro [1]” (setting [13]) were less than 3 nm/s, less than 3 nm/s and 13.6 ± 9.26 nm/s, respectively. Moreover, the MIC in [4] (Klebsiella pneumoniae) is 128 mg/L (≈ 266 µM); in data set [5] (Enterobacter cloacae), 16 mg/L (≈ 33.3 µM).

In the case of `CC(C)(O/N=C(\C(=O)N[C@@H]1C(=O)N2C(C(=O)[O-])=C(C[n+]3ccccc3)CS[C@H]12)c1csc(N)n1)C(=O)O` [Ceftazidime, ceftazidime], the Papp in “in vitro [1]” (setting [11]) was less than 3 nm/s; in the data set “in vitro [1]” (setting [12]), less than 3 nm/s; in “in vitro [1]” (setting [13]), less than 3 nm/s; in “in vitro [1]” (pH 7, Outer membrane permeability coefficients (nm/s), KP3800, discrete assay, average ± SD, three replicates (Table S2)), less than 3 nm/s; in “in vitro [1]” (pH 7, permeability coefficient, KP3800, degradation too slow to be reliably determined in intact bacteria, 'likely'), less than 3 nm/s. For the same molecule, in [6], the “Mean Clearance” value is listed as 9.22 L/h. Also, the MIC in data set [4] (Klebsiella pneumoniae) was 64 mg/L (≈ 117 µM); in [5] (Enterobacter cloacae), 16 mg/L (≈ 29.3 µM). In addition, in the data set on E. cloacae complex, the permeability coefficients is reported as 1 nm/s.

With `C[C@@H](O)[C@H]1C(=O)N2C(C(=O)O)=C(SCCN=CN)C[C@H]12` [Imipenem, imipenem], the Papp stood at 723 ± 124 nm/s in the data set “in vitro [1]” (setting [11]); 907 ± 65.7 nm/s in the data set “in vitro [1]” (setting [12]); 2040 nm/s in the data set “in vitro [1]” (setting [13]); 3930 nm/s in the data set “in vitro [9]” (setting [14]); 5770 nm/s in “in vitro [9]” (setting [15]); 6660 nm/s in the data set “in vitro [9]” (setting [16]). Also, the “Mean Clearance” value in data set [6] is reported as 12.4 L/h. Also, the MIC in data set [4] (Klebsiella pneumoniae) worked out at 128 mg/L (≈ 428 µM); in [5] (Enterobacter cloacae) it was 4 mg/L (≈ 13.4 µM). In addition, the pKa2 in data set [7] is recorded as 10.6. Also, the “OM permeability coefficient, fold smaller in KP3800 compared to EC3800” value in [8] is “approximately 5 fold”. In addition, in data set [2], the “Fraction bound in plasma (%)” value is 9.1%. For the same molecule, the “OM permeability of imipenem, fold faster than meropenem” value in data set [10] is “at least 7 fold”; in data set [10] (listed as imipenem) it was approximately 7 fold. Also, the “OM permeability of imipenem, fold faster than aztreonam” value in data set [10] (EC3800) was ~2,000 fold. The “OM permeability of imipenem, fold faster than cefepime” value in [10] (EC3800) stood at 258 fold. Besides, the “OM permeability of imipenem over meropenem, fold faster” value in the data set with P. aeruginosa is recorded as 2.74 fold.

Take `C[C@@H](O)[C@H]1C(=O)N2C(C(=O)O)=C(S[C@@H]3CN[C@H](C(=O)N(C)C)C3)[C@H](C)[C@H]12` [Meropenem, meropenem]: the Papp came to 57.5 ± 21.7 nm/s in “in vitro [1]” (setting [11]); 90.7 ± 6.89 nm/s in the data set “in vitro [1]” (setting [12]); 83.3 ± 9.17 nm/s in “in vitro [1]” (setting [13]); 402 ± 69.8 nm/s in “in vitro [9]” (setting [14]); 843 ± 292 nm/s in “in vitro [9]” (setting [15]); 729 ± 155 nm/s in “in vitro [9]” (setting [16]). In addition, the “Mean Clearance” value in data set [6] is 10.4 L/h. Moreover, the MIC is more than 256 mg/L in data set [4] (Klebsiella pneumoniae) and 4 mg/L (≈ 10.4 µM) in [5] (Enterobacter cloacae). The pKa2 in data set [7] was 8.3. Besides, the “OM permeability coefficient, fold smaller in KP3800 compared to EC3800” value in [8] is approximately 10 fold.

As for `N=C(N)NCCC[C@H](NC(=O)[C@@H](N)Cc1ccccc1)C(=O)Nc1ccc2ccccc2c1` [PAβN, phenylalanine-arginine β-naphthylamide] (H-Phe-Arg-βNA), the “effect of efflux pump inhibitor on OM permeability estimates of the β-lactams” value is listed as “did not significantly affect” in [8] (KP3800, PAβN 25 mg/liter, cassette assay) and “did not significantly affect” in data set [10] (EC3800, PAβN 25 mg/liter, cassette assay).

Consider polymyxin, for which the MIC is 64 mg/L in data set [4] (KP3800) and 0.5 mg/L in [5] (EC3800).
